In patent US20260209220A1, “SUBSTITUTED TETRAHYDROPYRROLO-PYRIDINONE COMPOUNDS AND THEIR USE IN TREATING MEDICAL CONDITIONS” (Karuna Therapeutics, Inc., priority 2022, published 2026):

Legend:
[1] = target: T1, hM4 receptors (Homo sapiens, UniProt P08173); test: Human M4 PAM PERK assay (CHO cells, TR-FRET, with EC20 acetylcholine); type: cell-based
T1 construct: expressed in transfected cells; host or cells: CHO cells
T1 sequence (P08173 1-479): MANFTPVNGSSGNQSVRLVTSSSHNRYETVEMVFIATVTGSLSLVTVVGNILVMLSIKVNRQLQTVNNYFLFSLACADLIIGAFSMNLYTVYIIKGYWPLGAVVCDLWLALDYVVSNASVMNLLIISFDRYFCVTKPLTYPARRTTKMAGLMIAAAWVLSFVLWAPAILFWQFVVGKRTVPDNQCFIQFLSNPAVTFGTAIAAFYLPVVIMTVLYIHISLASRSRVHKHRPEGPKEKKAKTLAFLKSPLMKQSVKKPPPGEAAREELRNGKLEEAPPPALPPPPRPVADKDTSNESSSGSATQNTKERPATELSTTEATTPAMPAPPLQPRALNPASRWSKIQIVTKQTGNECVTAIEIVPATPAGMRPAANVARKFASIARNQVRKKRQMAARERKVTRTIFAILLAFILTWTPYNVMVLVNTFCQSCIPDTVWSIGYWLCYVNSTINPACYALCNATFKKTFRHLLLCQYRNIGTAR
Description: (§1) Chinese hamster ovary (CHO) cells expressing either hM4 or rM4 receptors were frozen in assay ready vials (5×10^6 cells/vial) after bulking-up in culture. The day before an assay, vial(s) were thawed and cells seeded in 384 well white proxiplates at 1000/well for hM4 cells and at 2000/well for rM4 cells, in 10 μL of growth media (Hams/F12 with glutamax and 10% FCS) and incubated overnight at 37° C./5% CO2.
(§2) On the following morning, the growth media was removed by ‘flicking out’ over a bin, patting the inverted plate onto tissue, and then replacing with 10 μL of wash media (Hams/F12 with glutamax and 8 mM HEPES, NB: serum free). Then, the wash media was removed in the same way and replaced with 8 μL/well of the serum free media. Plates were then re-incubated for a further 4 hours at 37° C./5% CO2.
(§3) Compounds for testing were solubilized to 10 mM in DMSO and compound addition plates, consisting of ten-point concentration response curves (CRC) in duplicate points (10 μM top concentration, ½ log dilution series), were prepared by acoustic dispensing and the compound management group.
(§4) After the 4-hour incubation in serum free media, a 4 μL aliquot of the 3×compound solution containing an EC20 of acetylcholine (10 nM final concentration) was added to the cell plate using a 384 well plate to plate transfer. Then, the plate lid was replaced, and the cells incubated for 5 mins at 37° C./5% CO2. Following this final incubation, all cellular processes were stopped by the addition of 4 μL/well of lysis and blocking buffer and plates were incubated for 30 minutes at RT on an orbital shaker (gentle setting). Then, a final addition of 4 μL/well of antibody detection mix, containing both the Europium-Cryptate (donor) and d2 (acceptor) tagged detection components, was added followed by a further 2-hour incubation at RT, and then the plate was read using a TR-FRET (time resolved fluorescence resonance energy transfer) based protocol.

[2] = target: T2, human M4 receptor (Homo sapiens, UniProt P08173); test: M4 GTPγS PAM assay (CHO-K1 membranes, 35S-GTP binding, with EC20 acetylcholine); type: biochemical; settings: with EC20 acetylcholine (40 nM)
T2 construct: expressed in transfected cells; host or cells: CHO-K1 cells (membranes)
T2 sequence (P08173 1-479): T1 sequence (P08173 1-479)
Description: The M4 GTPγS PAM method was used. Membranes were prepared for GTPgS binding assays from CHO-K1 cells stably expressing human M4 receptor. Briefly, cells were grown in 5-layer cell culture flasks. Cells were washed with 50 mL of PBS and then dissociated with 0.05% trypsin. Dissociated cells were then collected by centrifugation at 650×g for 8 minutes at 4° C. Pellets were washed again in PBS by centrifugation and resuspended in 30 mL of 20 mM HEPES, 10 mM EDTA, pH 7.4. After sitting on ice for 30 min, membranes were collected by centrifugation at 50000×g for 15′ at 4° C., resuspended in 30 mL of 20 mM HEPES, 0.1 mM EDTA, pH 7.4 and collected again by centrifugation. Pellets were then washed twice by centrifugation in 30 mL of 20 mM HEPES, pH 7.4, and stored at −80° C. until the day of the assay. On the day of the assay, pellets were thawed on ice and resuspended in 1 mL of 20 mM HEPES, pH 7.4, 10 mM MgCl2, 100 mM NaCl using dounce homogenization. Membrane protein concentration is determined by BCA protein assay (Promega, Madison, WI) according to Promega guidelines.
On the day of the assay, serial dilutions of test PAM compounds were brought up in assay buffer (20 mM HEPES, 10 mM MgCl2, 100 mM NaCl) at 4X final assay concentration. […] of membrane homogenates (containing […] of membrane protein) were prepared in assay buffer supplemented with GDP at […] final assay concentration (final assay concentration of GDP is 5 μM for M2 and 0.1 μM for M4) and dispensed into 96 well polypropylene, U-bottom Greiner plates. 25 ml of vehicle or test PAM compound at 4× of final assay concentration diluted in the assay buffer were added to membrane and plates are incubated for 10-15 minutes at room temperature with gentle shaking. Then, […] of EC20 acetylcholine in assay buffer at 4× final assay concentration was added to assay plates (EC20 final assay concentrations was 40 nM for human M4).
Plates were then incubated, with shaking, for an additional 10-15 minutes. […] of 0.4 nM 35S-GTP (Perkin Elmer, Waltham, MA) in assay buffer was added to assay mixtures. The binding reaction is left on the shaker for 1 hour at room temperature. Membranes in assay reactions were then transferred to GF/C filter plates (Unifilter, Perkin Elmer) and washed three times using a FilterMate Harvester (Perkin Elmer) with cold assay buffer containing no GDP. Filter plates were then dried at 40° C. overnight followed by the addition of […] of Beta Plate Scintillation liquid. Plates are top and bottom sealed before being read on TopCount scintillation counter (Perkin Elmer, Waltham, MA).

[3] = target: T3, rM4 receptors (Rattus norvegicus, UniProt P08485); test: Rat M4 PAM PERK assay (CHO cells, TR-FRET, with EC20 acetylcholine); type: cell-based
T3 construct: expressed in transfected cells; host or cells: CHO cells
T3 sequence (P08485 1-478): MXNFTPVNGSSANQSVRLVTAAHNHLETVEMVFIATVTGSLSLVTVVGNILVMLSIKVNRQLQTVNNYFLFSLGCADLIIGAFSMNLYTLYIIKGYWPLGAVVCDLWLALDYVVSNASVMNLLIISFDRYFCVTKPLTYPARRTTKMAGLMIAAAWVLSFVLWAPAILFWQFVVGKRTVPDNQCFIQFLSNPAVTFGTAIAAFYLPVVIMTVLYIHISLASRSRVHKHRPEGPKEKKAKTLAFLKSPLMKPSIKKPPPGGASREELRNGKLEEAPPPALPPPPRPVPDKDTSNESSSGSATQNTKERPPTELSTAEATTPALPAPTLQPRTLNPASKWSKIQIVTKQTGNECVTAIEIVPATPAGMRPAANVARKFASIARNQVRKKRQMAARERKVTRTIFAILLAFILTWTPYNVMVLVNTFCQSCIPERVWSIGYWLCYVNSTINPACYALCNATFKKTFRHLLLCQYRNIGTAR
Description: as §1, §2, §3, §4

Compound | EC50 [1] | EC50 [2] | EC50 [3]
Cc1cc(=O)n(C)c2c1CN(C(=O)C(C)(C)C1CN(c3ccnc(C(F)(F)F)c3)C1)C2 [Compound I-41, 1,4-Dimethyl-6-(2-methyl-2-(1-(2-(trifluoromethyl)pyridin-4-yl)azetidin-3-yl)propanoyl)-1,5,6,7-tetrahydro-2H-pyrrolo[3,4-b]pyridin-2-one] | > 1000 nM | > 1000 nM | 
Cc1c2c(n(C)c(=O)c1C#N)CN(C(=O)CC1CN(c3ccnc(C(F)(F)F)c3)C1)C2 [Compound I-111, 1,4-Dimethyl-2-oxo-6-(2-(1-(2-(trifluoromethyl)pyridin-4-yl)azetidin-3-yl)acetyl)-2,5,6,7-tetrahydro-1H-pyrrolo[3,4-b]pyridine-3-carbonitrile] | 50 to 200 nM |  | 200 to 1000 nM
Cc1cc(=O)n(C2CC2)c2c1CN(C(=O)CC1CN(c3ccnc(C(F)(F)F)c3)C1)C2 [Compound I-103, 1-Cyclopropyl-4-methyl-6-(2-(1-(2-(trifluoromethyl)pyridin-4-yl)azetidin-3-yl)acetyl)-1,5,6,7-tetrahydro-2H-pyrrolo[3,4-b]pyridin-2-one] | 200 to 1000 nM |  | > 1000 nM
Cc1c2c(n(C)c(=O)c1Cl)CN(C(=O)CC1CN(c3ccnnc3)C1)C2 [Compound I-81, 3-Chloro-1,4-dimethyl-6-(2-(1-(pyridazin-4-yl)azetidin-3-yl)acetyl)-1,5,6,7-tetrahydro-2H-pyrrolo[3,4-b]pyridin-2-one] | < 50 nM |  | > 1000 nM
COc1c2c(n(C)c(=O)c1C)CN(C(=O)CC1CN(c3ccnc(C(F)(F)F)c3)C1)C2 [Compound I-97, 4-Methoxy-1,3-dimethyl-6-(2-(1-(2-(trifluoromethyl)pyridin-4-yl)azetidin-3-yl)acetyl)-1,5,6,7-tetrahydro-2H-pyrrolo[3,4-b]pyridin-2-one] | < 50 nM |  | 200 to 1000 nM
Cc1c2c(n(CC(F)(F)F)c(=O)c1Cl)CN(C(=O)CC1CN(c3ccccc3)C1)C2 [Compound I-94] | 200 to 1000 nM |  | 200 to 1000 nM
Cc1c2c(n(C)c(=O)c1C1CC1)CN(C(=O)CC1CN(c3ccnc(C(F)(F)F)c3)C1)C2 [Compound I-109, 3-Cyclopropyl-1,4-dimethyl-6-(2-(1-(2-(trifluoromethyl)pyridin-4-yl)azetidin-3-yl)acetyl)-1,5,6,7-tetrahydro-2H-pyrrolo[3,4-b]pyridin-2-one] | 50 to 200 nM |  | 200 to 1000 nM
COc1cncc(N2CC(CC(=O)N3Cc4c(C)cc(=O)n(C)c4C3)C2)c1 [Compound I-15] | < 50 nM |  | 200 to 1000 nM
Cc1c2c(n(C)c(=O)c1Cl)CN(C(=O)CC1CN(c3cncnc3)C1)C2 [Compound I-69] | < 50 nM |  | 50 to 200 nM
Cc1cc(=O)n(C)c2c1C(C)N(C(=O)CC1CN(c3ccnc(C(F)(F)F)c3)C1)C2 (racemic) [Compound I-113, (±)-1,4,5-Trimethyl-6-(2-(1-(2-(trifluoromethyl)pyridin-4-yl)azetidin-3-yl)acetyl)-1,5,6,7-tetrahydro-2H-pyrrolo[3,4-b]pyridin-2-one] | > 1000 nM |  | > 1000 nM
Cc1c2c(n(C)c(=O)c1Cl)CN(C(=O)CC1CN(c3cccc(C(F)(F)F)c3)C1)C2 [Compound I-73] | < 50 nM |  | 50 to 200 nM
Cc1c2c(n(C)c(=O)c1F)CN(C(=O)CC1CN(c3ccc(F)c(C(F)(F)F)c3)C1)C2 [Compound I-89] | 50 to 200 nM |  | 50 to 200 nM
Cc1c2c(n(C)c(=O)c1C)CN(C(=O)CC1CN(c3cccc(F)c3F)C1)C2 [Compound I-48] | < 50 nM |  | 50 to 200 nM
Cc1cc(=O)n(C)c2c1CN(C(=O)CC1CN(c3ccc(F)c(F)c3)C1)C2 [Compound I-32] | 50 to 200 nM |  | 200 to 1000 nM
Cc1c2c(n(C)c(=O)c1F)CN(C(=O)CC1CN(c3cccc(C(F)(F)F)c3F)C1)C2 [Compound I-86] | 200 to 1000 nM |  | 200 to 1000 nM
Cc1c2c(n(C)c(=O)c1C)CN(C(=O)CC1CN(c3ccc(OC(F)(F)F)cc3)C1)C2 [Compound I-52] | 50 to 200 nM |  | 50 to 200 nM
COc1cncc(N2CC(CC(=O)N3Cc4c(C)c(Cl)c(=O)n(C)c4C3)C2)c1 [Compound I-75] | < 50 nM |  | > 1000 nM
Cc1c2c(n(C)c(=O)c1F)CN(C(=O)CC1CN(c3cccc(F)c3F)C1)C2 [Compound I-87] | < 50 nM |  | 50 to 200 nM
Cc1cc(=O)n(CC2CC2)c2c1CN(C(=O)CC1CN(c3ccnc(C(F)(F)F)c3)C1)C2 [Compound I-101, 1-(Cyclopropylmethyl)-4-methyl-6-(2-(1-(2-(trifluoromethyl)pyridin-4-yl)azetidin-3-yl)acetyl)-1,5,6,7-tetrahydro-2H-pyrrolo[3,4-b]pyridin-2-one] | 200 to 1000 nM |  | 200 to 1000 nM
Cc1c2c(n(C)c(=O)c1Cl)CN(C(=O)CC1CN(c3cccnc3)C1)C2 [Compound I-67] | < 50 nM |  | 50 to 200 nM
Cc1c2c(n(C)c(=O)c1Cl)CN(C(=O)C(C)C1CN(c3ccnc(C(F)(F)F)c3)C1)C2 (single isomer, unassigned) [Compound I-83, 3-Chloro-1,4-dimethyl-6-(2-(1-(2-(trifluoromethyl)pyridin-4-yl)azetidin-3-yl)propanoyl)-1,5,6,7-tetrahydro-2H-pyrrolo[3,4-b]pyridin-2-one] | > 1000 nM |  | > 1000 nM
COc1cc(N2CC(CC(=O)N3Cc4c(C)c(C)c(=O)n(C)c4C3)C2)cc(C(F)(F)F)n1 [Compound I-54] | 200 to 1000 nM |  | 200 to 1000 nM
